Assay results as given in ChEMBL document CHEMBL5360537, “From lead to clinic: A review of the structural design of P2X7R antagonists” (Eur J Med Chem, 2023).
Each block holds one compound with its values, some of them ahead of it.

Columns and labels:
[1] = AUC(0 to 6 hrs) in Han Wistar rat Brain at 1 mg/kg, iv measured upto 6 hrs by liquid chromatography tandem mass spectrometry; format: ADME, organism-based; set-up: time < 6 hrs, dose 1 mg/kg, route iv
[2] = Half life in Han Wistar rat Brain at 1 mg/kg, iv measured upto 6 hrs by liquid chromatography tandem mass spectrometry; format: ADME, organism-based
[3] = Half life in Han Wistar rat plasma at 1 mg/kg, iv measured upto 6 hrs by liquid chromatography tandem mass spectrometry; format: ADME, organism-based
[4] = AUC(0 to 6 hrs) in Han Wistar rat plasma at 1 mg/kg, iv measured upto 6 hrs by liquid chromatography tandem mass spectrometry; format: ADME, organism-based; set-up: time < 6 hrs, dose 1 mg/kg, route iv
P2X purinoceptor 7 [5] = target: T1, P2X purinoceptor 7 (Homo sapiens, UniProt Q99572); experiment: Inhibition of human P2X7 receptor in HEK cells by fluorescence based calcium influx assay; format: cell-based
T1 sequence (Q99572 whole entry): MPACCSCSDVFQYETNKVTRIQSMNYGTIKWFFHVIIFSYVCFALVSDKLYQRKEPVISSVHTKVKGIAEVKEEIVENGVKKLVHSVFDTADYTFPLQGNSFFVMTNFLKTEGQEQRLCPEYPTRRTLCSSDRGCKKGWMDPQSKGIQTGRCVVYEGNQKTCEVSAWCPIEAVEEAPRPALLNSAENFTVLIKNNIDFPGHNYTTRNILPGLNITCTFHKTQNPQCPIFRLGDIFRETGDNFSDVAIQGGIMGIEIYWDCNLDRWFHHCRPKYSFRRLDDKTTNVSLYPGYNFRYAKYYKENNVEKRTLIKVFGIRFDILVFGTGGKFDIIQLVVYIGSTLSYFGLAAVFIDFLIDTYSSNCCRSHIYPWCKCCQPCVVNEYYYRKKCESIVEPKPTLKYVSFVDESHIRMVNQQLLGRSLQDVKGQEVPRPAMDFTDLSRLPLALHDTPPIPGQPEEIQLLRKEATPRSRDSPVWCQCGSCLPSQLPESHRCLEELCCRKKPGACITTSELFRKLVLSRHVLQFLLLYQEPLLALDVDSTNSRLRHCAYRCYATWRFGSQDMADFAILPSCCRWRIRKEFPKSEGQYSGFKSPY

P2X purinoceptor 7 [6] = target: T2, P2X purinoceptor 7 (Mus musculus, UniProt Q9Z1M0); experiment: Inhibition of mouse P2X7 receptor expressed in xenopus laevis Oocyte cells by TEVC analysis; format: cell-based
T2 sequence (Q9Z1M0 whole entry): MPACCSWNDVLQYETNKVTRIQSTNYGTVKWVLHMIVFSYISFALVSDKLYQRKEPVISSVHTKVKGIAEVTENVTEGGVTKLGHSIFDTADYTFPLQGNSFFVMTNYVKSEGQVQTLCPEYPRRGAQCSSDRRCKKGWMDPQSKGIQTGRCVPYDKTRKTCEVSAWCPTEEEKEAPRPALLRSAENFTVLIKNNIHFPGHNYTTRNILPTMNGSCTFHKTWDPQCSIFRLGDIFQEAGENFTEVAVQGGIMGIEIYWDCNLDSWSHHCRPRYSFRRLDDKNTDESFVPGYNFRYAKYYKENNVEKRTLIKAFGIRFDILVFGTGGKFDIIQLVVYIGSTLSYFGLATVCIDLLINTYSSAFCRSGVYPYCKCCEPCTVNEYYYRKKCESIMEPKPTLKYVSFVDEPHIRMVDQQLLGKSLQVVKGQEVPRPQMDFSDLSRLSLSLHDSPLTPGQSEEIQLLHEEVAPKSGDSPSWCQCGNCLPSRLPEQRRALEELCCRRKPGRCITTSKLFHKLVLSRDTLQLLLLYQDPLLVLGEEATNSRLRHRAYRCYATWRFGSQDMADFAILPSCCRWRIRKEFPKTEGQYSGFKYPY

P2X purinoceptor 7 [7] = target: T1, P2X purinoceptor 7; experiment: Inhibition of human P2X7 receptor transfected in HEK293 cells by calcium influx assay; format: cell-based
P2X purinoceptor 7 [8] = target: T3, P2X purinoceptor 7 (Rattus norvegicus, UniProt Q64663); experiment: Inhibition of rat P2X7 receptor transfected in HEK293 cells by calcium influx assay; format: cell-based
T3 sequence (Q64663 whole entry): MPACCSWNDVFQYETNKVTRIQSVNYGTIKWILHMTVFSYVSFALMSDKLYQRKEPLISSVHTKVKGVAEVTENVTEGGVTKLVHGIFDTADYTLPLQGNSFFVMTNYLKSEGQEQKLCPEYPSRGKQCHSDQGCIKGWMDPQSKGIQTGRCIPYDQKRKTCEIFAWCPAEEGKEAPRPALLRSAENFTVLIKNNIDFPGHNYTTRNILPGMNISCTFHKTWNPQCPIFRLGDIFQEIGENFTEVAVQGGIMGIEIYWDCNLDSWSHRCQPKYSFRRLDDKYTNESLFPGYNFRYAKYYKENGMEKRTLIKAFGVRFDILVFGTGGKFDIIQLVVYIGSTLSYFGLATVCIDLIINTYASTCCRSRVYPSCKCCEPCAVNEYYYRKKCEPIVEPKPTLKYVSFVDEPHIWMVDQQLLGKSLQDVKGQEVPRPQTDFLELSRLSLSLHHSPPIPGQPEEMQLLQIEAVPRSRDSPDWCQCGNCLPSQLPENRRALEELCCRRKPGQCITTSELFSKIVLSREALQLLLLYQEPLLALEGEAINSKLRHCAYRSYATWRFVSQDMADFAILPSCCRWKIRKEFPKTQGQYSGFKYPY

P2X purinoceptor 7 [9] = target: T1, P2X purinoceptor 7; experiment: Antagonist activity at recombinant human P2X7 receptor expressed in 1321N1 cells measured after 30 mins by fluorescence based calcium flux assay; format: cell-based
Mus musculus = experiment: Antiinflammatory activity in ATP induced mouse paw edema model; format: functional; settings: read-out: ID50 (the source's name)
P2X purinoceptor 7 [10] = target: T1, P2X purinoceptor 7; experiment: Antagonist activity at P2X7 receptor in human THP-1 cells assessed as reduction in ATP induced IL-1 beta release; format: cell-based
[11] = target: T4, P2X purinoceptor 7 (Mus musculus) (UniProt Q9Z1M0); experiment: Antagonist activity at P2X7 receptor in mouse Peritoneal macrophage cells assessed as ATP induced dye uptake at 10 uM relative to control; format: cell-based; settings: filed as antagonist
T4 sequence (whole entry): T2 sequence (Q9Z1M0 whole entry)

P2X purinoceptor 7 [12] = target: T2, P2X purinoceptor 7; experiment: Antagonist activity at P2X7 receptor in mouse Peritoneal macrophage cells assessed as reduction in ATP induced IL-1 beta release; format: cell-based
P2X purinoceptor 7 [13] = target: T1, P2X purinoceptor 7; experiment: Antagonist activity at P2X7 in human THP-1 cells; format: cell-based
[14] = Half life in human liver microsomes; format: ADME, Microsome
P2X purinoceptor 7 [15] = target: T2, P2X purinoceptor 7; experiment: Inhibition of mouse P2X7 receptor expressed in HEK293 cells incubated for 5 mins followed by Bz-ATP addition measured after 3 mins by fluorescence based assay; format: cell-based
P2X purinoceptor 7 [16] = target: T1, P2X purinoceptor 7; experiment: Inhibition of human P2X7 receptor expressed in HEK293 cells incubated for 5 mins followed by Bz-ATP addition measured after 3 mins by fluorescence based assay; format: cell-based

IC50 (P2X purinoceptor 7 [6]): 390 nM
Compound: O=C(NCC1(c2ccc(CO[N+](=O)[O-])cc2)CCCCC1)c1ccccc1Cl

IC50 (P2X purinoceptor 7 [9]): 3.1 nM
Compound: O=C(OCC1c2ncn(-c3ccccc3)c2CCN1C(=O)c1cccc(C(F)(F)F)c1Cl)c1cccc(C(F)(F)F)c1Cl (centres undefined)

IC50 (P2X purinoceptor 7 [6]): 1430 nM
Compound: Cc1ccc(C2(CNC(=O)c3cc(CO[N+](=O)[O-])ccc3Cl)CCCCC2)cc1

IC50 (P2X purinoceptor 7 [10]): 1100 nM | inhibition [11]: 60% | IC50 (P2X purinoceptor 7 [12]): 1500 nM
Compound: CC1=C(C(c2ccc(Cl)cc2)n2cc(COCc3ccco3)nn2)C(=O)c2ccccc2C1=O (centres undefined)
ED50 (Mus musculus): 16 mg/kg

IC50 (P2X purinoceptor 7 [13]): 9.3 nM | half-life [14]: 55.8 min
Compound: Cc1ccc2c(=O)n(C(C)CO)ccc2c1NC(=O)Cc1ccc(C(F)(F)F)c(F)c1 (centres undefined)

IC50 (P2X purinoceptor 7 [15]): 13.4 nM | IC50 (P2X purinoceptor 7 [16]): 11.1 nM
Compound: O=C(NCC(c1scnc1C(F)F)N1CCC(Oc2cccc(Cl)n2)CC1)c1c(F)cccc1Cl (centres undefined)

More lines, now with the values behind:

Compound: COc1ccc(Cl)c(C(=O)NCC23CC4CC(CC(C4)C2)C3)c1
AUC(0-t) at 6 h [1]: 221 ng·h/mL | half-life [2]: 9.6 min | half-life [3]: 28.2 min | AUC(0-t) at 6 h [4]: 186 ng·h/mL

Compound: COc1ccc(Cl)c(C(=O)NCC23CC4CC(CC(F)(C4)C2)C3)c1
IC50 (P2X purinoceptor 7 [5]): 17 nM

Compound: O=C(NCc1cccc(C(F)(F)F)c1Cl)[C@@]1(O)CCC(O)c2ncccc21 (some centres undefined)
IC50 (P2X purinoceptor 7 [7]): 101 nM | IC50 (P2X purinoceptor 7 [8]): < 1000 nM

Compound: COc1ccc(Cl)c(C(=O)NCC23CC4(F)CC(F)(CC(F)(C4)C2)C3)c1
AUC(0-t) at 6 h [1]: 380 ng·h/mL | half-life [2]: 75.6 min | half-life [3]: 103 min | AUC(0-t) at 6 h [4]: 385 ng·h/mL

Compound: O=C1CCC(C(=O)NCC2CCCCCCC2)c2cccnc21 (centres undefined)
IC50 (P2X purinoceptor 7 [7]): > 1000 nM | IC50 (P2X purinoceptor 7 [8]): > 1000 nM
